{
  "source": "patent US20240018470A1",
  "about": "“METHOD OF MANIPULATING PLURIPOTENCY IN CELLS” (YALE UNIVERSITY, priority 2022, published 2024)",
  "key": {"hESCs [1]": {"tested_on": "hESCs", "test": "hESC BMP4-induced differentiation, pluripotency marker immunofluorescence", "assay_type": "cell-based, human", "details": "BMP4 50 ng/ml, at 12 hours; similar trend in NANOG", "protocol": "(§1) Cells were dissociated with accutase and seeded onto 8 well imaging slides (ibidi 80826) at a density of 4-6×10^4/cm^2. Cells were seeded and maintained in Rock-inhibitor Y27672 (MCE; 10 μM) to increase survival and the uniformity of response. Treatments with 1 mM BaCl2 or 10 or 25 nM Ergtoxin or 100 nM rapamycin were initiated 4 hours after seeding. Differentiation was initiated 24 hours after seeding where indicated. To initiate differentiation, the media was replenished with/without BaCl2 or Ergtoxin and treated with the indicated growth factors or small molecules. Cells were incubated for the indicated times without media change before fixation.\nCells were fixed for 30 min in 4% paraformaldehyde, rinsed twice with DPBS (without Ca^2+ and Mg^2+, denoted DPBS^−/−), and blocked for 30 min at room temperature. The blocking solution contained 3% donkey serum and 0.1% Triton X-100 in 1×DPBS^−/−. After blocking, the cells were incubated with primary antibodies at room temperature for 2 hours. Antibodies and concentrations are listed below. […]\nImages were acquired using a 20×, NA 0.75 objective on an Olympus IX83 inverted epifluorescence microscope or an Olympus/Andor spinning disk confocal microscope. […] This segmentation was cleaned (to remove debris and to separate merged cells) and mean nuclear protein intensities as well as standard errors were quantified using a custom MATLAB code. […]"}, "hESCs [2]": {"tested_on": "hESCs", "test": "hESC pluripotency marker immunofluorescence", "assay_type": "cell-based, human", "protocol": "hESCs were grown in mTeSR1 ([…] Technologies) in tissue culture dishes coated with Matrigel (Corning; 1:200 in DMEM/F12) and kept at 37° C., 5% CO2. The cell lines used were ESI017 (ESIBIO) and H9.\nas §1\nCells were fixed for 30 min in 4% paraformaldehyde, rinsed twice with DPBS (without Ca^2+ and Mg^2+, denoted DPBS^−/−), and blocked for 30 min at room temperature. The blocking solution contained 3% donkey serum and 0.1% Triton X-100 in 1×DPBS^−/−. After blocking, the cells were incubated with primary antibodies at room temperature for 2 hours. Antibodies and concentrations are listed below. Cells were washed three times with DPBST (1×DPBS^−/− with Tween 20) and incubated with secondary antibodies (AlexaFluor 488 A21206, AlexaFluor 555 A31570 and A21432, and AlexaFluor 647 A31571, Thermo Fisher; 1:500) and DAPI for 30 min at room temperature. After secondary antibody incubation, samples were washed in DPBST and then DPBS at room temperature.\nImages were acquired using a 20×, NA 0.75 objective on an Olympus IX83 inverted epifluorescence microscope or an Olympus/Andor spinning disk confocal microscope. Cell segmentation was performed using ilastik software. This segmentation was cleaned (to remove debris and to separate merged cells) and mean nuclear protein intensities as well as standard errors were quantified using a custom MATLAB code. Nuclear intensities were normalized by DAPI to correct for intensity variation due to optics. […]"}, "Xenopus embryos [3]": {"tested_on": "Xenopus embryos", "test": "Organ situs (left-right patterning) scoring in stage 45 tadpoles", "assay_type": "in vivo, Xenopus tropicalis", "details": "blastula/gastrula embryos treated stage 8 to stage 12, 50 nM", "protocol": "Stage 45 Xenopus embryos were paralyzed with benzocaine or tricaine and scored with a light stereomicroscope. Cardiac looping was determined by position of the outflow tract; D-loop: rightward, L-loop: leftward; A-loop: midline. Normal intestinal looping was scored as counter-clockwise rotation of the gut, while abnormal intestinal looping was scored as completely inverse gut rotation (clockwise) or complete lack of looping (un-looped). While a completely inverted gut rotation is clearly an abnormality of LR patterning, an unlooped gut is less clear so the present study only considered an unlooped gut as abnormal situs when combined with abnormal placement (left-sided or midline) of the gall bladder. To quantify total abnormal organ situs, each tadpole was counted only once, regardless of whether multiple organs were affected.\n(§2) Normal embryonic medium is 1/9× modified Ringer's (MR) containing 11 mM NaCl, 0.2 mM KCl, 0.2 mM CaCl2), 0.1 mM Mg2Cl and 0.55 mM HEPES. To allow Ergtoxin to penetrate the embryos, the present study manually removed the vitelline envelope of stage 8 embryos and incubated embryos in 1/9×MR containing 50 nM Ergtoxin (Alomone STE-450) until stage 12. Embryos were then transferred back into 1/9×MR lacking Ergtoxin to develop until stage 45 in order to score organ situs. Barium chloride was applied into the medium at 20 mM and embryos were thoroughly rinsed in 1/9×MR after each incubation period for further development in Ba2+-free medium. For extracellular K^+ manipulations, the KCl concentration in 1/9×MR was modified from 0.2 mM (normal) to 20 mM (high) or 0 mM (low). The ionophore valinomycin (ACROS) and L-type VGCC blocker Nifedipine (ACROS) were diluted in DMSO as stock solutions and applied to embryos in 1/9×MR at 2 nM and 10 μM respectively. Treatments performed during gastrulation were applied from stage 8 through stage 12, and embryos were then rinsed thoroughly and returned into 1/9×MR. For rapamycin, the present study created a standard stock solution of 50 mg/ml in DMSO. The stock solution was diluted 1:2500 in the appropriate embryonic media (final 20 μg/ml). Embryos were treated at stage 7 and then fixed at stage 11 for in situ hybridization.\n(§3) In experiments where embryos were evaluated for phenotypes and scored (gastrulation, left-right patterning, in situ hybridizations) the present study carried out three to five biological replicates and Fisher's exact test to evaluate statistical significance. The animal cap experiment was performed twice with a total score of four to eight animal caps per experiment. For the calcium transient analyses, data was collected from three to five embryos in each experiment in three independent experiments, and statistical analyses on GCaMP/mCherry fluorescence intensity as well as Ca^2+ transient area were performed using student's t-test. For whole cell electrophysiological recordings, three to five embryos (two cells each) were examined for their membrane potential and statistical significance was tested by student's t-test. Graphs were designed using GraphPad Prism software. Models were created with BioRender.com."}, "Xenopus embryos [4]": {"tested_on": "Xenopus embryos", "test": "Gastrulation scoring (incomplete blastopore closure) in treated or kcnh6-depleted embryos", "assay_type": "in vivo, Xenopus tropicalis", "details": "blastula/gastrula embryos treated stage 8 to stage 12, 50 nM", "protocol": "All injections of Xenopus embryos were performed at the one-cell stage using a fine glass needle and Picospritzer system. A kcnh6 translation blocking (kcnh6 MO, 5′-[…]-3′, SEQ ID NO:1) and a scrambled morpholino oligonucleotide were obtained from Gene Tools LLC and injected at 10 ng to deplete kcnh6 or as a control, respectively. CRISPR sgRNAs for kcnh6 targeted either exon 3 or exon 4 based on the v7.1 gene model of the X. tropicalis genome (CRex3: 5′-[…]-3′, SEQ ID NO:2 and CRex4: 5′-[…]-3′, SEQ ID NO:3). CRISPR sgRNAs for cacna1c (5′-[…]-3′, SEQ ID NO:4) and cacna1g (5′-[…]-3′, SEQ ID NO:5) were designed from the v7.1 model of the Xenopus tropicalis genome. For F0 CRISPR knockdown, embryos were injected with 1.5 ng Cas9 Protein (PNA-Bio) and 400 pg of targeting sgRNA and raised to desired stages. […] Full length human KCNH6 (NM 030779.3; cloned in pCS107), GCaMP6 (subcloned in pCSDest) and mCherry cDNAs (Addgene #34935; in pCS2+), were used to generate capped mRNAs in vitro by first linearizing with appropriate restriction enzymes and then transcribing with the mMessage machine kit (Ambion). mRNAs were injected at 3 pg (human KCNH6), 150 pg (GCaMP6) and 150 pg (mCherry) per embryo. Embryos were raised at 21° C. to allow time for sufficient expression levels at blastula/gastrula stages.\nas §2, §3"}, "hESCs [5]": {"tested_on": "hESCs", "test": "hESC pluripotency marker qPCR", "assay_type": "cell-based, human", "details": "25 nM; OCT4 and SOX2 by day 2, all three genes on day 5", "protocol": "hESCs were grown in mTeSR1 (STEMCELL Technologies) in tissue culture dishes coated with Matrigel (Corning; 1:200 in DMEM/F12) and kept at 37° C., 5% CO2. The cell lines used were ESI017 (ESIBIO) and H9. Cells were routinely passaged using dispase (STEMCELL Technologies) and tested for mycoplasma contamination and found negative. For rapamycin experiments, cells were grown in MEF-conditioned HUESM media supplemented with 20 ng/ml bFGF with or without 100 nM rapamycin, which the present study found to increase the survival of rapamycin treated cells compared to cells grown in mTeSR1.\nFor qPCR, hESCs were grown with or without ErgToxin (25 nM) for the indicated times. RNA collection and DNase treatment were performed using the RNAqueous®-Micro Total RNA Isolation Kit (AM1931) and cDNA was synthesized with the SuperScript Vilo cDNA Synthesis Kit (Fisher Scientific 11754-050). qPCR measurements were collected using SYBR Green reagent (LifeTech-4367659) on a Step OnePlus instrument (Applied Biosciences). Data were normalized using the housekeeping gene GAPDH. Primers for qPCR were: OCT4: 5′-[…]-3′ (SEQ ID NO:12), 5′-[…]-3′ (SEQ ID NO:13), SOX2: 5′-[…]-3′ (SEQ ID NO:14), 5′-[…]-3′ (SEQ ID NO:15), NANOG: 5′-[…]-3′ (SEQ ID NO:16), 5′-[…]-3′ (SEQ ID NO:17), GAPDH: 5′-[…]-3′ (SEQ ID NO:18), 5′-[…]-3′ (SEQ ID NO:19)."}},
  "note": "No end group written: not given here.",
  "data": [
    {"substance": "Ergtoxin: a scorpion peptide that specifically acts as a pore blocker of the KCNH channel family (Alomone STE-450) (DRDSCVDKSRCAKYGYYQECQDCCKNAGHNGGTCMFFKCKCA; ends and bridges not checked; cysteine pairing not given here; UniProt Q86QT3 21-62, looked up)", "values": [
      {"measurement": "downregulation of pluripotency markers such as SOX2", "setting": "hESCs [1]", "result": "significant delay"},
      {"measurement": "effect on pluripotency markers in the presence of rapamycin", "setting": "hESCs [2]; 25 nM Ergtoxin with 100 nM rapamycin", "result": "no effect"},
      {"measurement": "pluripotency markers OCT4 and SOX2", "setting": "hESCs [2]; hESCs grown for two days, 25 nM Ergtoxin or 1 mM Barium, immunostaining and qPCR", "result": "modest but significant elevation"},
      {"measurement": "LR defects", "setting": "Xenopus embryos [3]", "result": "identical gastrulation and LR defects"},
      {"measurement": "gastrulation defects", "setting": "Xenopus embryos [4]", "result": "identical gastrulation and LR defects"},
      {"measurement": "OCT4, SOX2 and NANOG transcript level", "setting": "hESCs [5]", "result": "upregulation of these genes at the transcript level"}
    ]}
  ]
}
